Experimental data taken from patent publication US20030229140A1, “Herbal molecule as potential anti-leukemic drug” (priority 2002, published 2003).
Read-outs that look alike come from different tables or passages of the source.

How the values were obtained:
AML patient's PBMC = assay: Incubation of AML patient's PBMC with CA, viable cell count; format: cell-based, human; conditions: PBMC of myeloid leukemia patients (AML)
Method: Whole blood (10 ml each) was drawn from previously diagnosed myeloid leukemic patients, one patient was diagnosed as AML and the other one was diagnosed as CML. Mononuclear cells were separated by Ficoll/hypaque density gradient centrifugation. PBMC (1×10^5-2×10^6/ml) of myeloid leukemia patients were incubated with varied concentrations of CA for 48 hours at 37° C. in 5% CO2. Cells were then washed and counted for viability.

[1] = test system: Molt 4 (T lymphoid cell line); assay: Growth inhibition of T-lymphoid cell line Molt-4 by CA; format: cell-based
Excerpt: Culture of T-Lymphoid cell line Molt-4. This cell line was obtained from American Type culture collection (ATCC), VA, USA and grown in vitro as described for the cell line K562.

[2] = test system: Erythroleukemic cell line (K562); assay: Incubation of CD33- erythroleukemic cell line K562 with CA/PCQ, viable cell count; format: cell-based; conditions: for inhibition at 50 µg/mL: K562, 50.0 μg/ml; for inhibition at 100 µg/mL: K562, 100.0 μg/ml
Excerpt: This cell line was collected from American Type Culture Collection (ATCC), VA, USA. This cell line is […]. […] Cells were then washed and counted for viability.

CML patient's PBMC = assay: Incubation of CML patient's PBMC (leukemic cells) with CA/PCQ, viable cell count; format: cell-based, human
Method: Whole blood (10 ml each) was drawn from previously diagnosed myeloid leukemic patients, one patient was diagnosed as AML and the other one was diagnosed as CML. Mononuclear cells were separated by Ficoll/hypaque density gradient centrifugation. […] Cells were then washed and counted for viability.

[3] = Homo sapiens, 24 h, 1 day, 1 × 10^5 cells per ml per well, read-out: Percentage inhibition of Cell Growth
[4] = Homo sapiens, 48 h, 2 days, 1 × 10^5 cells per ml per well, read-out: Percentage inhibition of Cell Growth
[5] = Homo sapiens, 72 h, 3 days, 1 × 10^5 cells per ml per well, read-out: Percentage inhibition of Cell Growth

Q: What does the source list for `O=C(/C=C/c1ccc(O)c(O)c1)O[C@@H]1C[C@](O)(C(=O)O)C[C@@H](O)[C@H]1O` (single isomer, unassigned) [CA, chlorogenic acid or 3-Caffeoyl quinic acid]?
A: destruction of cells (in words) (AML patient's PBMC): destroyed; destruction of cells (in words) [1]: requires higher dose; inhibition at 10 µg/mL ([2]; Homo sapiens, 24 h, K562, 10.0 μg/ml, 1 day, 1 × 10^5 cells per ml per well, read-out: Percentage inhibition of Cell Growth): 8%; inhibition at 25 µg/mL ([2]; Homo sapiens, 24 h, K562, 25.0 μg/ml, 1 day, 1 × 10^5 cells per ml per well, read-out: Percentage inhibition of Cell Growth): 20%; inhibition at 50 µg/mL [2, 3]: 28%; inhibition at 100 µg/mL [2, 3]: 84%; inhibition at 10 µg/mL ([2]; Homo sapiens, 48 h, K562, 10.0 μg/ml, 2 days, 1 × 10^5 cells per ml per well, read-out: Percentage inhibition of Cell Growth): 48.1%; inhibition at 25 µg/mL ([2]; Homo sapiens, 48 h, K562, 25.0 μg/ml, 2 days, 1 × 10^5 cells per ml per well, read-out: Percentage inhibition of Cell Growth): 63%; inhibition at 50 µg/mL [2, 4]: 77.8%; inhibition at 100 µg/mL [2, 4]: 98.1%; inhibition at 10 µg/mL ([2]; Homo sapiens, 72 h, K562, 10.0 μg/ml, 3 days, 1 × 10^5 cells per ml per well, read-out: Percentage inhibition of Cell Growth): 85.2%; inhibition at 25 µg/mL ([2]; Homo sapiens, 72 h, K562, 25.0 μg/ml, 3 days, 1 × 10^5 cells per ml per well, read-out: Percentage inhibition of Cell Growth): 92.6%; inhibition at 25 µg/mL ([2]; Homo sapiens, 72 h, K562, 25.0 μg/ml, 3 days, 2×10^5 cells per ml per well, read-out: % Inhibition of cell growth (After 3 days of incubation)): 20%; inhibition at 50 µg/mL [2, 5]: 100%; inhibition at 50 µg/mL ([2]; Homo sapiens, 72 h, 3 days, 2×10^5 cells per ml per well, read-out: % Inhibition of cell growth (After 3 days of incubation)): 28%; inhibition at 100 µg/mL [2, 5]: 100%; inhibition at 10 µg/mL ([2]; Homo sapiens, K562, 10 μg/ml, 48 hr, 1 × 10^5 cells/ml/well, read-out: Percent inhibition of cell growth after 48 hr of incubation): 46.6%; inhibition at 15 µg/mL ([2]; Homo sapiens, K562, 15 μg/ml, 48 hr, 1 × 10^5 cells/ml/well, read-out: Percent inhibition of cell growth after 48 hr of incubation): 93.3%; inhibition at 20 µg/mL ([2]; Homo sapiens, K562, 20 μg/ml, 48 hr, 1 × 10^5 cells/ml/well, read-out: Percent inhibition of cell growth after 48 hr of incubation): 100%; inhibition at 25 µg/mL ([2]; Homo sapiens, K562, 2×10^6/ml/well, 25 μg/ml, read-out: growth inhibition of leukemic cell lines): ≤ 20%; destruction of cells (in words) ([2]; K562): destroyed; growth inhibition of leukemic cell lines (CML patient's PBMC; CML leukemic cells, 2×10^6/ml/well, 25 μg/ml of CA): up to 2.38; destruction of cells (in words) (CML patient's PBMC; CML patient's leukemic cells): destroyed; inhibition at 50 µg/mL (CML patient's PBMC; Homo sapiens, 24 h, CML patient's PBMC, 50.0 μg/ml, 1 day, 1 × 10^5 cells per ml per well, read-out: Percentage inhibition of Cell Growth): 4.76%; inhibition at 100 µg/mL (CML patient's PBMC; Homo sapiens, 24 h, CML patient's PBMC, 100.0 μg/ml, 1 day, 1 × 10^5 cells per ml per well, read-out: Percentage inhibition of Cell Growth): 9.52%; inhibition at 50 µg/mL (CML patient's PBMC; Homo sapiens, 48 h, CML patient's PBMC, 50.0 μg/ml, 2 days, 1 × 10^5 cells per ml per well, read-out: Percentage inhibition of Cell Growth): 22.2%; inhibition at 100 µg/mL (CML patient's PBMC; Homo sapiens, 48 h, CML patient's PBMC, 100.0 μg/ml, 2 days, 1 × 10^5 cells per ml per well, read-out: Percentage inhibition of Cell Growth): 45%; inhibition at 50 µg/mL (CML patient's PBMC; Homo sapiens, 72 h, CML patient's PBMC, 50.0 μg/ml, 3 days, 1 × 10^5 cells per ml per well, read-out: Percentage inhibition of Cell Growth): 30%; inhibition at 100 µg/mL (CML patient's PBMC; Homo sapiens, 72 h, CML patient's PBMC, 100.0 μg/ml, 3 days, 1 × 10^5 cells per ml per well, read-out: Percentage inhibition of Cell Growth): 55.6%; inhibition at 25 µg/mL (CML patient's PBMC; Homo sapiens, PBMC, 72 h, CML patient's leukemic cells, 25.0 μg/ml, 3 days, 2×10^5 cells per ml per well, read-out: % Inhibition of cell growth (After 3 days of incubation)): 2.38%; inhibition at 50 µg/mL (CML patient's PBMC; Homo sapiens, PBMC, 72 h, CML patient's leukemic cells, 50.0 μg/ml, 3 days, 2×10^5 cells per ml per well, read-out: % Inhibition of cell growth (After 3 days of incubation)): 4.67%; inhibition at 20 µg/mL (CML patient's PBMC; Homo sapiens, CML patient's PBMC, 20 μg/ml, 48 hr, 1 × 10^5 cells/ml/well, read-out: Percent inhibition of cell growth after 48 hr of incubation): 5.8%; inhibition at 50 µg/mL (CML patient's PBMC; Homo sapiens, CML patient's PBMC, 50 μg/ml, 48 hr, 1 × 10^5 cells/ml/well, read-out: Percent inhibition of cell growth after 48 hr of incubation): 10.3%; inhibition at 100 µg/mL (CML patient's PBMC; Homo sapiens, CML patient's PBMC, 100 μg/ml, 48 hr, 1 × 10^5 cells/ml/well, read-out: Percent inhibition of cell growth after 48 hr of incubation): 22.5%; inhibition at 500 µg/mL (CML patient's PBMC; Homo sapiens, CML patient's PBMC, 500 μg/ml, 48 hr, 1 × 10^5 cells/ml/well, read-out: Percent inhibition of cell growth after 48 hr of incubation): 32.3%
